Molecular target: CYP3A4 (Homo sapiens, UniProt P08684)
Assay: LC-MS/MS of 1-hydroxymidazolam, human liver microsomes
Format: biochemical

Chain of CYP3A4 (P08684 2-503): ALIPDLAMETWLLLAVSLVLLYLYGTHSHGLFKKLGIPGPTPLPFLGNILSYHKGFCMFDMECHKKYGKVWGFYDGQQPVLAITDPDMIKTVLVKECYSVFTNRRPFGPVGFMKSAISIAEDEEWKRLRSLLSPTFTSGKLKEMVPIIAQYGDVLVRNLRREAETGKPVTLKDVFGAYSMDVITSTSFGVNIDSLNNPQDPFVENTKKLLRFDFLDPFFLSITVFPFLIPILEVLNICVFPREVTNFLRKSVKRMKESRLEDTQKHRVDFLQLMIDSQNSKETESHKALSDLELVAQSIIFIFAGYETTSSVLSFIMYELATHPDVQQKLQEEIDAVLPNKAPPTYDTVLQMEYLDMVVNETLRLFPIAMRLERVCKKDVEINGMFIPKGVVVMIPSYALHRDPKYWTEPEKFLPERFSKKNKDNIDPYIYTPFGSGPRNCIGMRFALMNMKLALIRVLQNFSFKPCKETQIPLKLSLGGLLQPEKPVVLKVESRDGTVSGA

In the case of `O=c1c(-c2ccc(O)cc2)coc2cc(O)cc(O)c12` [genistein], the “Liver microsome inhibition genistein (25 μM)” value was 19%.
